Reference: patent US20210292330A1, “PYRROLIDINE-FUSED HETEROCYCLES” (Erasca, Inc., priority 2020, published 2021)

Biological target: T1, KRAS 4B G12C protein (Homo sapiens, UniProt P01116, G12C)
T1 construct: This protein contained 188 amino acids in total, including an N-terminal 6-Histidine tag; made in house; host or cells: E. coli BL21
Experiment: In vitro covalent adduct formation (CAF) assay by LC-MS
Assay type: binding
Details: compound 10 μM, protein 5 μM, 22° C., percentage of protein bound by the compound
Method in brief: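 Recombinant His-TEV-tagged KRAS 4B G12C (residues 1-169, E. coli) at 5 μM in Tris-buffered saline pH 7.4 was incubated with 10 μM compound (4% DMSO) at 22° C. for one hour, sampling over time. Intact-mass LC-MS free:adduct ratios gave % protein bound; duplicates.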

Structure (SMILES)	CAF (10 minutes/60 minutes) at 10 micromolar: 10 minutes	CAF (10 minutes/60 minutes) at 10 micromolar: 60 minutes
C=C(F)C(=O)N1CCN(c2nc(OC[C@@H]3CCCN3C)nc3c2CN(Cc2c(C)cc(C)c(O)c2C)C3)C[C@@H]1CC#N [1-325]	0%	3%
C=C(F)C(=O)N1CCN(c2nc(OC[C@@H]3CCCN3C)nc3c2CN(Cc2cc(O)c(Cl)cc2C)C3)C[C@@H]1CC#N [1-326, 2-[(2S)-4-{6-[(4-chloro-5-hydroxy-2-methylphenyl)methyl]-2-{[(2S)-1-methylpyrrolidin-2-yl]methoxy}-5H,7H-pyrrolo[3,4-d]pyrimidin-4-yl}-1-(2-fluoroprop-2-enoyl)piperazin-2-yl]acetonitrile]	0%	2%
C=C(F)C(=O)N1CCN(c2nc(OC[C@@H]3CCCN3C)nc3c2CN(Cc2cc(O)c(C)cc2C)C3)C[C@@H]1CC#N [1-327]	0%	3%
C=CC(=O)N1C2CC(=O)CC1CN(c1nc(OC[C@@H]3CCCN3C)nc3c1CN(Cc1cc(O)ccc1Cl)C3)C2 [1-328]	14%	39%
C=C(F)C(=O)N1CCN(c2nc(OC[C@@H]3CCCN3C)nc3c2CN(Cc2cc(O)c(C)cc2Cl)C3)C[C@@H]1CC#N [1-329]	2%	22%
C=CC(=O)N1CCN(c2nc(OC[C@@H]3CCCN3C)nc3c2CN(Cc2cc(O)c(Cl)cc2Cl)C3)C[C@@H]1CC#N [1-330]	52%	86%
C=CC(=O)N1CCN(c2nc(OC[C@@H]3CCCN3C)nc3c2CN(Cc2cc(O)c(Cl)cc2C)C3)C[C@@H]1CC#N [1-331]	32%	76%
C=C(F)C(=O)N1CCN(c2nc(OC[C@@H]3CCCN3C)nc3c2CN(Cc2cc(N)ncc2Cl)C3)C[C@@H]1CC#N [1-332]	6%	48%
C=CC(=O)N1[C@H](C)CN(c2nc(OC[C@@H]3CCCN3C)nc3c2CN(Cc2c(Cl)ccc(O)c2C)C3)C[C@@H]1C [1-333]	17%	59%
C=C(F)C(=O)N1CCN(c2nc(OC[C@@H]3CCCN3C)nc3c2CN(Cc2nc(N)cc(C)c2C(F)(F)F)C3)C[C@@H]1CC#N [1-334]	79%	86%
C=CC(=O)N1CCN(c2nc(OC[C@@H]3CCCN3C)nc3c2CN(Cc2nc(N)cc(C)c2C(F)(F)F)C3)C[C@@H]1CC#N [1-335]	92%	95%
C=CC(=O)N1CCN(c2nc(O[C@@H]3CN(C)C[C@H]3OC)nc3c2CN(Cc2cc(O)ccc2Cl)C3)C2COCC21 (stereo partly drawn) [1-336]	0%	9%
C=C(F)C(=O)N1CCN(c2nc(OC[C@@H]3CCCN3C)nc3c2CN(C2CCc4ccc(Cl)c(Cl)c42)C3)C[C@@H]1CC#N (stereo partly drawn) [1-337]	27%	74%
C=C(F)C(=O)N1CCN(c2nc(OC[C@@H]3CCCN3C)nc3c2CN(Cc2nc(N)ccc2Cl)C3)C[C@@H]1CC#N [1-339]	83%	92%
C=C(F)C(=O)N1CCN(c2nc(OC[C@@H]3CCCN3C)nc3c2CN(Cc2cc(NC)ncc2Cl)C3)C[C@@H]1CC#N [1-340]	0%	7%

More lines, now with the values ahead:

CAF (10 minutes/60 minutes) at 10 micromolar: 10 minutes	CAF (10 minutes/60 minutes) at 10 micromolar: 60 minutes	Structure (SMILES)
0%/ 0%	0%/ 0%	C=CC(=O)N1[C@H](C)CN(c2nc(OC[C@@H]3CCCN3C)nc3c2CN(Cc2c(Cl)ccc(O)c2C)C3)C[C@H]1C [1-341]
80%	87%	C=CC(=O)N1CCN(c2nc(OC[C@@H]3CCCN3C)nc3c2CN(C2CCc4ccc(O)c(Cl)c42)C3)C[C@@H]1CC#N (stereo partly drawn) [1-342]
0%/ 0%	0%/ 0%	C=C(F)C(=O)N1CCN(c2nc(OC[C@@H]3CCCN3C)nc3c2CN(Cc2c[nH]nc2C)C3)C[C@@H]1CC#N [1-343]
0%	2%	C=C(F)C(=O)N1CCN(c2nc(OC[C@@H]3CCCN3C)nc3c2CN(Cc2n[nH]cc2C)C3)C[C@@H]1CC#N [1-344]
0%/ 0%	0%/ 0%	C=C(F)C(=O)N1CCN(c2nc(OC[C@@H]3CCCN3C)nc3c2CN(Cc2n[nH]c4ccccc24)C3)C[C@@H]1CC#N [1-345]
16%	61%	C=C(F)C(=O)N1CCN(c2nc(OC[C@@H]3CCCN3C)nc3c2CN(Cc2nc(NC)ccc2Cl)C3)C[C@@H]1CC#N [1-361]
